Our source for the Ki values is PMC8041276 (ACS Chemical Neuroscience, 2021).

Structures are written as SMILES. pKi: −log10 of the molar value.

The target of experiment [1] is T1, 5-HT1AR (Homo sapiens, UniProt P08908).
T1 construct: expressed in transfected cells
T1 sequence (P08908 1-422): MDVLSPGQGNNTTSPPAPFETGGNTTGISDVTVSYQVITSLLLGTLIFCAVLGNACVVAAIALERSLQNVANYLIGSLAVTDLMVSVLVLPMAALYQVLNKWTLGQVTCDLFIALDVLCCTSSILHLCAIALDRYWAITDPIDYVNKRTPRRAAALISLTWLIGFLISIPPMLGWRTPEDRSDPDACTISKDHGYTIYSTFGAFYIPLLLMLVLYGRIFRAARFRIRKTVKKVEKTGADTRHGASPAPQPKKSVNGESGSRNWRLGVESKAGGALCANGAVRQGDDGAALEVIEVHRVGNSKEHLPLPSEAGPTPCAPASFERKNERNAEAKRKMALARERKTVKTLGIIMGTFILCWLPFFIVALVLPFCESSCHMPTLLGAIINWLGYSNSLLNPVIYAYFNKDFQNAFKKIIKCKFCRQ
Put plainly: [3H]-8-OH-DPAT radioligand binding assay, HEK293 cells. To be noted: mean of three experiments. The protocol:
(§1) All experiments were carried out according to the previously published procedures.[41]−[43] HEK293 cells stably expressing human 5-HT1A, 5-HT6, 5-HT7b, and D2L receptors (prepared with the use of Lipofectamine 2000) or CHO-K1 cells with plasmid containing the sequence coding for the human serotonin 5-HT2A receptor (PerkinElmer) were maintained at 37 °C in a humidified atmosphere containing 5% CO2 and grown in Dulbecco’s modified Eagle’s medium containing 10% dialyzed fetal bovine serum and 500 μg/mL G418 sulfate. For membrane preparation, cells were cultured in 150 cm^2 flasks, grown to 90% confluence, washed twice with prewarmed to 37 °C phosphate buffered saline (PBS), and centrifuged (200g) in PBS containing 0.1 mM EDTA and 1 mM dithiothreitol. Prior to membrane preparation, pellets were stored at −80 °C. Cell pellets were thawed and homogenized in 10 volumes of assay buffer using an Ultra Turrax tissue homogenizer and centrifuged twice at 35 000g for 15 min at 4 °C, with incubation for 15 min at 37 °C between the centrifugations. The composition of the assay buffers was experimentally selected to achieve the maximum signal window (more details in Supporting Information). All assays were carried out in a total volume of 200 μL in 96-well plates for 1 h at 37 °C except 5-HT1AR and 5-HT2AR which were incubated at room temperature and 27 °C, respectively. The process of equilibration was terminated by rapid filtration through Unifilter plates with a 96-well cell harvester, and radioactivity retained on the filters was quantified on a Microbeta plate reader (PerkinElmer, USA). For displacement studies the assay samples contained the following as radioligands (PerkinElmer, USA): 2.5 nM [^3H]-8-OH-DPAT (135.2 Ci/mmol) for 5-HT1AR; 1 nM [^3H]-ketanserin (53.4 Ci/mmol) for 5-HT2AR; 2 nM [^3H]-LSD (83.6 Ci/mmol) for 5-HT6R; 0.8 nM [^3H]-5-CT (39.2 Ci/mmol) for 5-HT7R or 2.5 nM [^3H]-raclopride (76.0 Ci/mmol) for D2LR. Nonspecific binding was defined in the presence of 10 μM 5-HT in 5-HT1AR and 5-HT7R binding experiments, whereas 20 μM mianserin, 10 μM methiothepine, and 10 μM haloperidol were used in 5-HT2AR, 5-HT6R, and D2LR assays, respectively. Each compound was tested in triplicate at seven concentrations (10^–10–10^–4 M). The inhibition constants (Ki) were calculated from the Cheng–Prusoff equation.[44]

The target of experiment [2] is T2, D2R (Homo sapiens, UniProt P14416).
T2 construct: expressed in transfected cells
T2 sequence (P14416 whole entry): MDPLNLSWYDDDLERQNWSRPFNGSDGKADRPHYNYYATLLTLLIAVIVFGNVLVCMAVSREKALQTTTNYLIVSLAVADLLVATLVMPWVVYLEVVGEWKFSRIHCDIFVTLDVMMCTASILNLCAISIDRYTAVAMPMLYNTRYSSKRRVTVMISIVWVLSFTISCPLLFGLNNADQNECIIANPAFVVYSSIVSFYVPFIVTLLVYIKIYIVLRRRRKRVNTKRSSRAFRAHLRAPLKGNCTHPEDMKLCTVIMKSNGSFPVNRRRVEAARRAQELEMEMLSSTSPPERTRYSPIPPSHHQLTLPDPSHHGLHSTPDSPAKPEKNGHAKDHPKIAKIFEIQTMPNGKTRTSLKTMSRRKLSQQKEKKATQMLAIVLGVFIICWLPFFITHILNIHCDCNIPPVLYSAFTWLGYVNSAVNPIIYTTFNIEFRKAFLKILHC
Put plainly: [3H]-raclopride radioligand binding assay, HEK293 cells. To be noted: mean of three experiments. The procedure:
as §1

In the case of `O=C(N[C@@H]1CCNC1)c1ccn(S(=O)(=O)c2cccc(Cl)c2)c1-c1ccc(F)cc1` [Compound 27, (R)-2-(4-Fluorophenyl)-1-[(3-chlorophenyl)sulfonyl]-N-(pyrrolidin-3-yl)-1H-pyrrole-3-carboxamide], the pKi (as a rule, −log10 of the Ki, conventionally taken in molar units) in experiment [1] is 4.27; in experiment [2], 5.15.

Turning to `O=C(N[C@H]1CCNC1)c1ccn(S(=O)(=O)c2cccc(Cl)c2)c1-c1ccc(F)cc1` [Compound 28, (S)-2-(4-Fluorophenyl)-1-[(3-chlorophenyl)sulfonyl]-N-(pyrrolidin-3-yl)-1H-pyrrole-3-carboxamide], the pKi in experiment [1] was 4.21; in experiment [2], 5.13.
